Assay results from patent US20190304569A1, “DRUG TARGETING OF HUMAN INDOLEAMINE 2,3-DIOXYGENASE” (Albert Einstein College of Medicine, priority 2016, published 2019).

Biological target: human indoleamine 2,3-dioxygenase (hIDO) (Homo sapiens, UniProt P14902)
Test: hIDO enzyme activity in solution studies (binding to the Si site)
Type: biochemical
Conditions: for effect of binding to the Si site on the enzyme activity: solution data
Source text: The existence of the Si site in hIDO was first proposed by us in 2009 based on solution studies (8). […] It is notable that for decades MitoC has been widely used as a chemotherapy drug for several types of cancer (9).

Chain of human indoleamine 2,3-dioxygenase (hIDO) (P14902 whole entry): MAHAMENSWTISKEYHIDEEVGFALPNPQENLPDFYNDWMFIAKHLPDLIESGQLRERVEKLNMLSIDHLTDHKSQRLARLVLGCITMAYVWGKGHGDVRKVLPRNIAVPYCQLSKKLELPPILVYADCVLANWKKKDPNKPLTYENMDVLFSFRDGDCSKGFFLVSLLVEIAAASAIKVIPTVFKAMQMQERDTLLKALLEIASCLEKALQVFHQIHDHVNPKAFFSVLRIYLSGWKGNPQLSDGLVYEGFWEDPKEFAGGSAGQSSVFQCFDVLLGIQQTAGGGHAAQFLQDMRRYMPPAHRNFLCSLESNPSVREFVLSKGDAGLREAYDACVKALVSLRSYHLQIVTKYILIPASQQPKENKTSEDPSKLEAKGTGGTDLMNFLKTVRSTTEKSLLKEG

With `CO[C@@]12[C@H](COC(N)=O)C3=C(C(=O)C(C)=C(N)C3=O)N1C[C@@H]1N[C@@H]12` [MitoC, Mitomycin C] the “effect of binding to the Si site on the enzyme activity” value was “inhibiting the enzyme activity” and the Ki (uncompetitive inhibition of hIDO by binding to the Si site) was 25 µM.

`N[C@@H](Cc1c[nH]c2ccccc12)C(=O)O` [Trp, tryptophan] was tested, and the “effect of binding to the Si site on the enzyme activity” value was “inhibits the enzyme activity”.
